Data from patent US20110112158A1, “BENZISOXAZOLE ANALOGS AS GLYCOGEN SYNTHASE ACTIVATORS” (priority 2009, published 2011).

System: glycogen synthase
Test: Glycogen Synthase (GS) Assay
Type: biochemical
Conditions: for EC50: compound concentration needed to give 50% maximum activation; for GS SC200: compound concentration needed to stimulate 200% of the enzyme activity
Protocol: Twelve μl per well of substrate solution containing glycogen (4.32 mg/ml), 2.67 mM UDP-glucose, 21.6 mM phospho(enol)pyruvate and 2.7 mM NADH in 30 mM glycylglycine, pH 7.3 buffer was added into a polystyrene 384-well assay plate (BD Biosciences).
Compound solutions (8 μl/well) at various concentrations (0-300 μM) were added to the assay plate (columns 5-24). Compound solution contains 30 mM glycylglycine, pH 7.3, 40 mM KCl, 20 mM MgCl2, 9.2% DMSO, with (columns 15-24) or without (columns 5-14) 20 mM glucose 6-phosphate.
Enzyme solution (12 μl/well) containing glycogen synthase (16.88 μg/ml), pyruvate kinase (0.27 mg/ml), lactate dehydrogenase (0.27 mg/ml) in 50 mM Tris-HCl, pH 8.0, 27 mM DTT and bovine serum albumin (BSA, 0.2 mg/ml) was added to the assay plate (columns 3-24). As a blank control, enzyme solution without glycogen synthase was added into the top half wells of columns 1-2. To the bottom half wells of columns 1-2 were added a known activator, glucose 6-phosphate (at final concentration 5 mM) in addition to the enzyme solution. The reaction mixture was incubated at room temperature. The assay plate was then read for absorbance at 340 nm on an Envision reader every 3 minutes up to a total of 15 minutes.
The enzyme activity (with or without compound) was calculated by the reaction rate and represented by the optical density change (μOD) per minute. Percent stimulation of glycogen synthase activity by a compound at various concentrations was calculated by the following formula: […]
wherein Rs is the reaction rate of the enzyme in the presence of compound and Rt is the reaction rate of the enzyme in the absence of compound.
SC200 is defined as the compound concentration that is needed to stimulate 200% of the enzyme activity. EC50 is defined as the compound concentration that is needed to give 50% maximum activation.

SMILES | EC50 [µM] | GS SC200 [µM]
CCN(CC(=O)O)c1noc2ccc(COc3ccc(-c4cc(F)c(F)cc4OC)cc3)cc12 [Example 16, {[5-(4′,5′-Difluoro-2′-methoxy-biphenyl-4-yloxymethyl)-benzo[d]isoxazol-3-yl]-ethyl-amino}-acetic acid] | 0.631 | 2.18
COCCCN(CC(=O)O)c1noc2ccc(COc3ccc(-c4cc(F)c(F)cc4OC)cc3)cc12 [Example 15, [[5-(4′,5′-Difluoro-2′-methoxy-biphenyl-4-yloxymethyl)-benzo[d]isoxazol-3-yl]-(3-methoxy-propyl)-amino]-acetic acid] | 0.514 | 0.169
COc1cc(F)c(F)cc1-c1ccc(OCc2ccc3onc(OC(C)C(=O)O)c3c2)cc1 (stereo not shown) [Example 7, 2-[5-(4′,5′-Difluoro-2′-methoxy-biphenyl-4-yloxymethyl)-benzo[d]isoxazol-3-yloxy]-propionic acid] | 0.662 | 0.218
Oc1noc2c(COc3ccc(-c4cc(F)c(F)cc4F)cc3)cccc12 [Example 10, 7-(2′,4′,5′-Trifluoro-biphenyl-4-yl-oxymethyl)-benzo[d]isoxazol-3-ol] | 0.836 | 0.148
COc1cc(F)c(F)cc1-c1ccc(OCc2cccc3c(N(C)CC(=O)O)noc23)cc1 [Example 19, {[7-(4′,5′-Difluoro-2′-methoxy-biphenyl-4-yloxymethyl)-benzo[d]isoxazol-3-yl]-methyl-amino}-acetic acid] | 4.22 | 1.57
Oc1noc2c(COc3ccc(-c4cc(F)c(F)cc4Cl)cc3)cccc12 [Example 12, 7-(2′-Chloro-4′,5′-difluoro-biphenyl-4-yloxymethyl)-benzo[d]isoxazol-3-ol] | 0.702 | 0.406
COc1cc(F)c(F)cc1-c1ccc(OCc2ccc3onc(N)c3c2)cc1 [Example 1, 5-(4′,5′-Difluoro-2′-methoxy-biphenyl-4-yloxymethyl)-benzo[d]isoxazol-3-ylamine] | 1.49 | 0.688
COc1cc(F)c(F)cc1-c1ccc(OCc2ccc3onc(N(CC(=O)O)CC4CC4)c3c2)cc1 [Example 17] | 1.16 | 0.438
COc1cc(F)c(F)cc1-c1ccc(OCc2ccc3onc(O)c3c2)cc1 [Example 4, 5-(4′,5′-Difluoro-2′-methoxy-biphenyl-4-yloxymethyl)-benzo[d]isoxazol-3-ol] | 0.172 | 0.032
COc1cc(F)c(F)cc1-c1ccc(OCc2cccc3c(O)noc23)cc1 [Example 11, 7-(4′,5′-Difluoro-2′-methoxy-biphenyl-4-yloxymethyl)-benzo[d] isoxazol-3-ol] | 0.158 | 0.014
COc1cc(F)c(F)cc1-c1ccc(OCc2ccc3onc(OCCC(=O)O)c3c2)cc1 [Example 9, 3-[5-(4′,5′-Difluoro-2′-methoxy-biphenyl-4-yloxymethyl)-benzo[d]isoxazol-3-yloxy]-propionic acid] | 1.7 | 0.61
COc1cc(F)c(F)cc1-c1ccc(OCc2ccc3onc(N(CC(=O)O)CC4CCOCC4)c3c2)cc1 [Example 18, [[5-(4′,5′-Difluoro-2′-methoxy-biphenyl-4-yloxymethyl)-benzo[d]isoxazol-3-yl]-(tetrahydro-pyran-4-ylmethyl)-amino]-acetic acid] | 0.713 | 0.249
COCCN(CC(=O)O)c1noc2ccc(COc3ccc(-c4cc(F)c(F)cc4OC)cc3)cc12 [Example 14, [[5-(4′,5′-Difluoro-2′-methoxy-biphenyl-4-yloxymethyl)-benzo[d]isoxazol-3-yl]-(2-methoxy-ethyl)-amino]-acetic acid] | 0.365 | 0.098

Further compounds by falling EC50, results first:

EC50 [µM] | SMILES | GS SC200 [µM]
1.97 | CNc1noc2ccc(COc3ccc(-c4cc(F)c(F)cc4OC)cc3)cc12 [Example 2] | 0.514
1.76 | COc1cc(F)c(F)cc1-c1ccc(OCc2ccc3onc(OC(C(=O)O)c4ccccc4)c3c2)cc1 (stereo not shown) [Example 8, [5-(4′,5′-Difluoro-2′-methoxy-biphenyl-4-yloxymethyl)-benzo[d]isoxazol-3-yloxy]-phenyl-acetic acid] | 0.723
1.35 | COc1cc(F)c(F)cc1-c1ccc(OCc2ccc3onc(OCC(=O)O)c3c2)cc1 [Example 5, [5-(4′,5′-Difluoro-2′-methoxy-biphenyl-4-yloxymethyl)-benzo[d]isoxazol-3-yloxy]-acetic acid] | 0.492
0.792 | Cc1cc(F)c(F)cc1-c1ccc(OCc2cccc3c(O)noc23)cc1 [Example 13, 7-(4′,5′-Difluoro-2′-methyl-biphenyl-4-yloxymethyl)-benzo[d]isoxazol-3-ol] | 0.523
0.777 | COc1cc(F)c(F)cc1-c1ccc(OCc2ccc3onc(OC(C)(C)C(=O)O)c3c2)cc1 [Example 6, 2-[5-(4′,5′-Difluoro-2′-methoxy-biphenyl-4-yloxymethyl)-benzo[d]isoxazol-3-yloxy]-2-methyl-propionic acid] | 0.348
0.422 | Oc1noc2ccc(COc3ccc(-c4cc(F)c(F)cc4F)cc3)cc12 [Example 20, 5-(2′,4′,5′-Trifluoro-biphenyl-4-yloxymethyl)-benzo[d]isoxazol-3-ol] | 0.247
0.302 | COc1cc(F)c(F)cc1-c1ccc(OCc2ccc3onc(N(C)CC(=O)O)c3c2)cc1 [Example 3] | 0.024
